Literature values, collected in patent publication US11883631B2 (priority 2015, dated 2024).

What was measured:
[1] = in vivo
[2] = 10 mg/s vs 2 mg/s
[3] = in vivo; remark: listed apart in the source
[4] = EEG monitor effect site; 18-60 yr

## CC(C)c1cccc(C(C)C)c1O [propofol]
[1]
  effect-site concentration at burst suppression onset: higher than 8 μg/ml
[2]
  drop in mean arterial pressure, higher vs lower infusion rate: larger drop in mean arterial pressure
[3]
  Propofol concentration associated with awakening from anesthesia: < 1.8 µg/mL
During induction of anesthesia with propofol
  Reductions in systolic blood pressure (SBP): greater than 25%
Patients aged 20-85 yr, effect more evident in elderly (>70 yr)
  plasma concentration at which propofol may significantly decrease SBP: > 10000 ng/mL
[4]
  ke0: 0.456 min⁻¹
